Values of other authors, collected in US20240192198A1, “BIOMIMETIC LIPOSOMES AND METHODS OF MAKING AND USING THE SAME” (Worcester Polytechnic Institute, priority 2022, published 2024).

Details: hydrophobicity; obtained from the National Library of Medicine, PubChem Database

Question: Which logP does the source give for Nc1nc2ncc(CNc3ccc(C(=O)N[C@@H](CCC(=O)O)C(=O)O)cc3)nc2c(=O)[nH]1 [Folic acid] here?
Answer: −2.5
